As a reminder, the IC50 is the concentration at which inhibition is half-maximal. Broadly, the inhibition is how much of the control response was suppressed.

Assay [1] has as its target His-tagged human recombinant kinase full-length Akt1 (Homo sapiens (Human), UniProt P31749). The assay is described as follows: Akt1 kinase assay (TR-FRET). The format is biochemical. To be noted: 10 μM ATP, read-out: Akt1, median IC50. The text has this: Biological Assay 1.0: Akt1 Kinase Assay
Akt1 inhibitory activity of compounds of the present invention was quantified employing the Akt1 TR-FRET assay as described in the following paragraphs.
His-tagged human recombinant kinase full-length Akt1 expressed in insect cells was purchased form Invitrogen (part number PV 3599). As substrate for the kinase reaction the biotinylated peptide biotin-Ahx-KKLNRTLSFAEPG (C-terminus in amide form) was used which can be purchased e.g. from the company Biosynthan GmbH (Berlin-Buch, Germany).
(§1) For the assay 50 nl of a 100 fold concentrated solution of the test compound in DMSO was pipetted into a black low volume 384 well microtiter plate (Greiner Bio-One, Frickenhausen, Germany), 2 μl of a solution of Akt1 in assay buffer [50 mM TRIS/HCl pH 7.5, 5 mM MgCl2, 1 mM dithiothreitol, 0.02% (v/v) Triton X-100 (Sigma)] were added and the mixture was incubated for 15 min at 22° C. to allow prebinding of the test compounds to the enzyme before the start of the kinase reaction. Then the kinase reaction was started by the addition of 3 μl of a solution of adenosine-tri-phosphate (ATP, 16.7 μM=>final conc. in the 5 μl assay volume is 10 μM) and substrate (1.67 μM=>final conc. in the 5 μl assay volume is 1 μM) in assay buffer and the resulting mixture was incubated for a reaction time of 60 min at 22° C. The concentration of Akt1 in the assay was adjusted depending of the activity of the enzyme lot and was chosen appropriate to have the assay in the linear range, typical enzyme concentrations were in the range of about 0.05 ng/μl (final conc. in the 5 μl assay volume).
(§2) The reaction was stopped by the addition of 5 μl of a solution of HTRF detection reagents (200 nM streptavidine-XL665 [Cisbio] and 1.5 nM anti-phosho-Serine antibody [Millipore, cat. #35-001] and 0.75 nM LANCE Eu-W 1024 labeled anti-mouse IgG antibody [Perkin Elmer]) in an aqueous EDTA-solution (100 mM EDTA, 0.1% (w/v) bovine serum albumin in 50 mM HEPES/NaOH pH 7.5).
(§3) The resulting mixture was incubated 1 h at 22° C. to allow the binding of the biotinylated phosphorylated peptide to the streptavidine-XL665 and the antibodies. Subsequently the amount of phosphorylated substrate was evaluated by measurement of the resonance energy transfer from the anti-mouse-IgG-Eu-Chelate to the streptavidine-XL665. Therefore, the fluorescence emissions at 620 nm and 665 nm after excitation at 350 nm was measured in a HTRF reader, e.g. a Rubystar (BMG Labtechnologies, Offenburg, Germany) or a Viewlux (Perkin-Elmer). The ratio of the emissions at 665 nm and at […] was taken as the measure for the amount of phosphorylated substrate. The data were normalised (enzyme reaction without inhibitor=0% inhibition, all other assay components but no enzyme=100% inhibition).
(TR-FRET usually uses a lanthanide donor and a delayed reading to cut background.)

Assay [2] concerns the target His-tagged human recombinant kinase full-length Akt2 (Homo sapiens (Human), UniProt P31751). In words: Akt2 kinase assay (TR-FRET). The assay is classed as biochemical. Particulars: 10 μM ATP, read-out: Akt2, median IC50.
Excerpt: Biological Assay 2.0: Akt2 Kinase Assay
Akt2 inhibitory activity of compounds of the present invention was quantified employing the Akt2 TR-FRET assay as described in the following paragraphs.
His-tagged human recombinant kinase full-length Akt2 expressed in insect cells and activated by PDK1 was purchased from Invitrogen (part number PV 3975). As substrate for the kinase reaction the biotinylated peptide biotin-Ahx-KKLNRTLSFAEPG (C-terminus in amide form) was used which can be purchased e.g. from the company Biosynthan GmbH (Berlin-Buch, Germany).
as §1, with “Akt2” for “Akt1”, “0.2” for “0.05”
as §2
as §3, with “TR-FRET” for “HTRF”

A further assay relates to phospho-AKT at S473. In words: Cellular p-AKT1/2/3-S473 assay in KPL-4 cells. To be noted: Homo sapiens, KPL4; KPL-4 breast tumour cell line, 2 hours treatment; read-out: pAKT-S743 median IC50. The format is cell-based. As to the method:
The phospho-substrates of PI3K-AKT-mTOR axis were used as the readouts to reflect pathway inhibition. Cells were seeded at 60-80% confluency per well in 96-well cell culture plates. After overnight incubation at 37° C. 5% CO2, cells were treated with compounds and vehicle at 37° C. for 2 hours. […] All measurements where at least done in duplicates and confirmed by independent repetition. Alternatively pAKT-S473 was measured using the “Akt Duplex” of the MULTI-SPOT® Assay System (Fa. Meso Scale Discovery, Cat# N41100B-1) following manufacturers instructions. Each assay used 20 μg of protein extract and measured total AKT and p-AKT content simultaneously in one well. All measurements where at least done in duplicates and confirmed by independent repetition. Values for P-AKT are expressed as percentage of P-AKT level compared to total-AKT content of the extracts.

For a further assay, the system named is p-4E-BP1 at T70. In words: Cellular p-4E-BP1-T70 assay in KPL-4 cells. The format is cell-based. Particulars: Homo sapiens, KPL4; KPL-4 breast tumour cell line, 2 hours treatment; read-out: P4EBP1-T70 median IC50. As to the method: The molecular mechanism of action was investigated in a set of experiments to assess the inhibition of the PI3K-AKT-mTOR pathway in responsive cell lines such as KPL-4 breast tumour cell line (PIK3CA^H1047R, HER2^O/E and hormone independent). The phospho-substrates of PI3K-AKT-mTOR axis were used as the readouts to reflect pathway inhibition. Cells were seeded at 60-80% confluency per well in 96-well cell culture plates. After overnight incubation at 37° C. 5% CO2, cells were treated with compounds and vehicle at 37° C. for 2 hours. Thereafter, cells were lysed in 150 μl lysis buffer and the levels of phospho-AKT at T308 and S473 and p-4E-BP1 at T70 sites were determined with the corresponding AlphaScreen® SureFire® assay kits (Perkin Elmer: 4E-BP1 Assay Kit Cat # TRG4E2S10K; Akt 1/2/3 p-Ser 473 #TGRA4S500 and Akt 1/2/3 p-Thr 308 #TGRA3S500 as well as IgG detection Kit #6760617M) as described in the manuals. All measurements where at least done in duplicates and confirmed by independent repetition. Alternatively pAKT-S473 was measured using the “Akt Duplex” of the MULTI-SPOT® Assay System (Fa. Meso Scale Discovery, Cat# N41100B-1) following manufacturers instructions. Each assay used 20 μg of protein extract and measured total AKT and p-AKT content simultaneously in one well. All measurements where at least done in duplicates and confirmed by independent repetition. Values for P-AKT are expressed as percentage of P-AKT level compared to total-AKT content of the extracts.

Assay [3] deals with KPL-4 breast cancer cell line. In words: Tumor cell proliferation assay (CellTiter-Glo, 72 h), KPL-4. The assay is classed as cell-based. Particulars: Homo sapiens, KPL4, 72 h drug exposure. As to the method: (§4) Biological Assay 4.0: Tumor Cell Proliferation Assays
(§5) Compounds were tested in a cell-based assay that measures the capacity of the compounds to inhibit tumour cell proliferation following a 72 h drug exposure. Cell viability is determined using CellTiter-Glow® (CTG, Promega, cat# G7571/2/3). The CellTiter-Glo® Luminescent Cell Viability Assay is a homogeneous method to determine the number of viable cells in culture. Detection is based on using the luciferase reaction to measure the amount of ATP from viable cells. The amount of ATP in cells correlates with cell viability. Within minutes after a loss of membrane integrity, cells lose the ability to synthesize ATP, and endogenous ATPases destroy any remaining ATP; thus the levels of ATP fall precipitously.
(§6) Cells were plated at 3000-5000 cells/well (depending on the cell lines) in 90 μL growth medium on MTPs (Corning; #3603, black plate, clear flat bottom). For each cell line assayed, cells were plated onto a separate plate for determination of […] at t=0 hour and t=72 hour time points. Following overnight incubation at 37° C., chemiluminescence values for the t=0 samples were determined after adding 10 μl medium and 100 μl CTG solution according to manufacture protocol. Plates for the t=72 hour time points were treated with compounds diluted into growth medium at ten times final concentration added in 10 μL to the cell culture plate. Cells were then incubated for 72 hours at 37° C. Chemiluminescence values for the t=72 hour samples were determined. […] Experiments were controlled using a reference compound as standard.
(§7) Preferred compounds of the present invention show in this assay an inhibition of cell growth of cell lines such as the KPL-4 breast cancer cell line and the MCF-7 breast tumour cell line ([…], hormone dependent) with a median IC50 of <10 μM, more preferably, median IC50≦1 μM.
In general terms: ATP-based viability assays read luminescence as a measure of living cells.

Assay [4] has as its system MCF-7 breast tumour cell line. The assay is described as follows: Tumor cell proliferation assay (CellTiter-Glo, 72 h), MCF-7. The assay is classed as cell-based. Particulars: Homo sapiens, MCF7, 72 h drug exposure. As to the method: as §4, §5, §6, §7

His-tagged human recombinant kinase full-length Akt1, sequence (P31749 whole entry): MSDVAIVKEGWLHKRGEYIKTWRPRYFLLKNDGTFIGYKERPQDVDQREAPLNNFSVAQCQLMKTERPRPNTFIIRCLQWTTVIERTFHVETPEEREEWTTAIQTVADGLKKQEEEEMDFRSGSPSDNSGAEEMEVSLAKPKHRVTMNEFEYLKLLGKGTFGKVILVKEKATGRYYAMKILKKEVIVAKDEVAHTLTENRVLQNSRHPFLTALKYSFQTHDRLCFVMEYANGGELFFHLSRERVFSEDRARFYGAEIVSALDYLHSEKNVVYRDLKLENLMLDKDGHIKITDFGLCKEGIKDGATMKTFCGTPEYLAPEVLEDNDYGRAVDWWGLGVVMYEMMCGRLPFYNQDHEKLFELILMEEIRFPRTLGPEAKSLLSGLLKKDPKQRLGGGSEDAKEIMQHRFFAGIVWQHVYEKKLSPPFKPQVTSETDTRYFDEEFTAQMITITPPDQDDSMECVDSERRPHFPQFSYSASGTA
His-tagged human recombinant kinase full-length Akt2, sequence (P31751 whole entry): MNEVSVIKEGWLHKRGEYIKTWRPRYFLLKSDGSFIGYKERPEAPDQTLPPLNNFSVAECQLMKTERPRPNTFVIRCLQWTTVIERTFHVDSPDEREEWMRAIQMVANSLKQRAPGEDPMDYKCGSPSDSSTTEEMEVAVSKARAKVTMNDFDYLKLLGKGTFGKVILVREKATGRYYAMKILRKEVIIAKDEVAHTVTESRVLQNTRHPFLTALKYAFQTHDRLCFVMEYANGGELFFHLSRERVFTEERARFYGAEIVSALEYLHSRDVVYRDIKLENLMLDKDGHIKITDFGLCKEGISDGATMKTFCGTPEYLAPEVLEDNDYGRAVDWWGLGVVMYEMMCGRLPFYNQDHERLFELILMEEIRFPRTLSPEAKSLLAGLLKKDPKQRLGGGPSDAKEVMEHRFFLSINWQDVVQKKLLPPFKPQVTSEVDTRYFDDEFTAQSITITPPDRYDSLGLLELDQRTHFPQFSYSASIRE

As to `NC1(c2ccc(-c3nc4c(O)nccn4c3-c3ccccc3)cc2)CCC1` [Example 1, 2-[4-(1-Aminocyclobutyl)phenyl]-3-phenylimidazo[1,2-a]pyrazin-8-ol], the IC50 in assay [1] was 1600 nM; in assay [2], 970 nM.
For `CCOC(=O)c1cn2c(-c3ccccc3)c(-c3ccc(C4(N)CCC4)cc3)nc2cn1` [Example 5, Ethyl 2-[4-(1-aminocyclobutyl)phenyl]-3-phenylimidazo[1,2-a]pyrazine-6-carboxylate], the IC50 was determined as 37 nM in the assay with phospho-AKT at S473, 29 nM with p-4E-BP1 at T70, 10000 nM in assay [3] and 2400 nM in assay [4]. Further, the inhibition at 1.67 µM was 15.2% in assay [3] (1.67 μM, read-out: KPL-4 median inhibition at 1.67 μM (%)) and 40.6% in assay [4] (1.67 μM, read-out: MCF-7 median inhibition at 1.67 μM (%)).

Values taken from patent US9260435B2, “Substituted imidazopyrazines as Akt kinase inhibitors” (Bayer Intellectual Property GmbH, priority 2012, dated 2016).
